US11395857B2, “Radiolabeled melanocortin 1 receptor-specific alpha-melanocyte-stimulating hormone analogues for imaging or therapy” (PROVINCIAL HEALTH SERVICES AUTHORITY, priority 2018, dated 2022)

Experiments:
B16F10 mouse melanoma = assay: Biodistribution of 177Lu-labeled αMSH analogues in mice bearing B16F10 mouse melanoma; assay type: in vivo, C57BL/6J mice; conditions: among six αMSH analogues
Method: The B16-F10 mouse melanoma cells were cultured and inoculated in mice as described in Example 1.
For biodistribution studies, approximately 1-2 MBq of ^177Lu-labeled αMSH analogues via tail vein under anesthesia. At 1, 4, 24, and 120 h p.i., the mice were euthanized by CO2 inhalation. Organs/tissues were harvested and the radioactivity was measured as described in Example 1.

[1] = Biodistribution of 177Lu-labeled αMSH analogues in mice bearing SK-MEL-1 human melanoma; conditions: male, mouse, total radioactivity; for tissue to tissue ratio at 1 h: 1 h p.i.; for tissue to tissue ratio at 1 h / tissue to tissue ratio at 4 h / tissue to tissue ratio at 24 h / tissue to tissue ratio at 120 h: NRG mice, SK-MEL-1 melanoma; for tissue to tissue ratio at 4 h: 4 h p.i.; for tissue to tissue ratio at 24 h: 24 h p.i.; for tissue to tissue ratio at 120 h: 120 h p.i.
Method: The SK-MEL-1 human melanoma cell line (HTB-67) was obtained commercially from ATCC. SK-MEL-1 cells were cultured in Eagle's Minimum Essential Medium (StemCell Technologies) under the same conditions as described in Example 1. Immunodeficient NOD.Cg-Rag1tm1Mom I12rgtm1Wjl/SzJ (NRG) male mice were obtained from an in-house breeding colony at the BC Cancer Research Centre. For tumor implantation, male NRG mice were anesthetized by inhalation with 2% isoflurane, and 5 million SK-MEL-1 cells were inoculated subcutaneously on the right dorsal flank. Mice were used for imaging or biodistribution studies when the tumors reached 6-8 mm in diameter in 16-20 days.
Biodistribution studies were performed as described in Example 3.

[2] = NRG (NOD.Cg-Rag1tm1Mom I12rgtm1Wjl/SzJ), fat, iv
[3] = NRG (NOD.Cg-Rag1tm1Mom I12rgtm1Wjl/SzJ), seminal glands, iv
[4] = NRG (NOD.Cg-Rag1tm1Mom Il2rgtm1Wjl/SzJ), SK-MEL-1 tumour
[5] = NRG (NOD.Cg-Rag1tm1Mom Il2rgtm1Wjl/SzJ), adrenal glands
[6] = NRG (NOD.Cg-Rag1tm1Mom Il2rgtm1Wjl/SzJ), blood
[7] = NRG (NOD.Cg-Rag1tm1Mom Il2rgtm1Wjl/SzJ), bone
[8] = NRG (NOD.Cg-Rag1tm1Mom Il2rgtm1Wjl/SzJ), brain
[9] = NRG (NOD.Cg-Rag1tm1Mom Il2rgtm1Wjl/SzJ), heart
[10] = NRG (NOD.Cg-Rag1tm1Mom Il2rgtm1Wjl/SzJ), intestine
[11] = NRG (NOD.Cg-Rag1tm1Mom Il2rgtm1Wjl/SzJ), kidneys
[12] = NRG (NOD.Cg-Rag1tm1Mom Il2rgtm1Wjl/SzJ), liver
[13] = NRG (NOD.Cg-Rag1tm1Mom Il2rgtm1Wjl/SzJ), lungs
[14] = NRG (NOD.Cg-Rag1tm1Mom Il2rgtm1Wjl/SzJ), muscle
[15] = NRG (NOD.Cg-Rag1tm1Mom Il2rgtm1Wjl/SzJ), pancreas
[16] = NRG (NOD.Cg-Rag1tm1Mom Il2rgtm1Wjl/SzJ), spleen
[17] = NRG (NOD.Cg-Rag1tm1Mom Il2rgtm1Wjl/SzJ), stomach
[18] = NRG (NOD.Cg-Rag1tm1Mom Il2rgtm1Wjl/SzJ), testes
[19] = NRG (NOD.Cg-Rag1tm1Mom Il2rgtm1Wjl/SzJ), thyroid
[20] = NRG (NOD.Cg-Rag1tm1Mom Il2rgtm1Wjl/SzJ), tumour/blood
[21] = NRG (NOD.Cg-Rag1tm1Mom Il2rgtm1Wjl/SzJ), tumour/kidney
[22] = NRG (NOD.Cg-Rag1tm1Mom Il2rgtm1Wjl/SzJ), tumour/muscle
[23] = NRG (NOD.Cg-Rag1tm1Mom Il2rgtm1Wjl/SzJ), urine

CCCC[C@H](NC(=O)CN1CCC(NC(=O)[C@H](CCCCNC(=O)CN2CCN(CC(=O)O)CCN(CC(=O)O)CCN(CC(=O)O)CC2)NC(=O)[C@H](CCC(=O)O)NC(=O)CCCc2ccc(I)cc2)CC1)C(=O)N[C@H]1CC(=O)NCCCC[C@@H](C(N)=O)N(C)C(=O)[C@H](Cc2c[nH]c3ccccc23)NC(=O)[C@H](CCCNC(=N)N)N(C)C(=O)[C@@H](Cc2ccccc2)NC(=O)[C@H](Cc2c[nH]cn2)NC1=O [CCZ01118, [4-(p-iodophenyl)butanoyl]-Glu-Lys(DOTA)-Pip-Nle-cyclo[Asp-His-D-Phe-N-Me-Arg-Trp-N-Me-Lys]-NH2]
Improvement in tumour uptake retention (B16F10 mouse melanoma): showed the most improvement in tumour uptake retention

CCCC[C@H](NC(=O)CN1CCC(NC(=O)[C@H](CCCCNC(=O)CN2CCN(CC(=O)O)CCN(CC(=O)O)CCN(CC(=O)O)CC2)NC(=O)CNC(=O)CCCc2ccc(I)cc2)CC1)C(=O)N[C@H]1CC(=O)NCCCC[C@@H](C(N)=O)N(C)C(=O)[C@H](Cc2c[nH]c3ccccc23)NC(=O)[C@H](CCCNC(=N)N)N(C)C(=O)[C@@H](Cc2ccccc2)NC(=O)[C@H](Cc2c[nH]cn2)NC1=O [^177Lu-labeled CCZ01148, metal not drawn]
tissue uptake at 1 h [1, 2]: 2.4 ± 0.39 %ID/g | tissue uptake at 4 h [1, 2]: 2.69 ± 0.38 %ID/g | tissue uptake at 24 h [1, 2]: 2.1 ± 0.53 %ID/g | tissue uptake at 120 h [1, 2]: 1.13 ± 0.55 %ID/g | tissue uptake at 1 h [1, 3]: 1.81 ± 0.6 %ID/g | tissue uptake at 4 h [1, 3]: 1.66 ± 0.51 %ID/g | tissue uptake at 24 h [1, 3]: 1.22 ± 0.11 %ID/g | tissue uptake at 120 h [1, 3]: 0.44 ± 0.12 %ID/g | tissue uptake at 1 h [1, 4]: 6.62 ± 1.37 %ID/g | tissue uptake at 4 h [1, 4]: 9.46 ± 1.59 %ID/g | tissue uptake at 24 h [1, 4]: 30.5 ± 2.72 %ID/g | tissue uptake at 120 h [1, 4]: 26.5 ± 4.52 %ID/g | tissue uptake at 1 h [1, 5]: 6.47 ± 2.97 %ID/g | tissue uptake at 4 h [1, 5]: 5.69 ± 2.19 %ID/g | tissue uptake at 24 h [1, 5]: 5.66 ± 1.07 %ID/g | tissue uptake at 120 h [1, 5]: 4.04 ± 1.06 %ID/g | tissue uptake at 1 h [1, 6]: 32 ± 5.85 %ID/g | tissue uptake at 4 h [1, 6]: 22.7 ± 1.5 %ID/g | tissue uptake at 24 h [1, 6]: 14.7 ± 0.98 %ID/g | tissue uptake at 120 h [1, 6]: 1.93 ± 0.4 %ID/g | tissue uptake at 1 h [1, 7]: 1.98 ± 0.8 %ID/g | tissue uptake at 4 h [1, 7]: 1.38 ± 0.29 %ID/g | tissue uptake at 24 h [1, 7]: 1.21 ± 0.2 %ID/g | tissue uptake at 120 h [1, 7]: 0.49 ± 0.17 %ID/g | tissue uptake at 1 h [1, 8]: 0.49 ± 0.06 %ID/g | tissue uptake at 4 h [1, 8]: 0.39 ± 0.05 %ID/g | tissue uptake at 24 h [1, 8]: 0.32 ± 0.03 %ID/g | tissue uptake at 120 h [1, 8]: 0.13 ± 0.02 %ID/g | tissue uptake at 1 h [1, 9]: 7.94 ± 1.58 %ID/g | tissue uptake at 4 h [1, 9]: 5.71 ± 0.51 %ID/g | tissue uptake at 24 h [1, 9]: 4.57 ± 0.51 %ID/g | tissue uptake at 120 h [1, 9]: 1.4 ± 0.25 %ID/g | tissue uptake at 1 h [1, 10]: 3.1 ± 1 %ID/g | tissue uptake at 4 h [1, 10]: 2.26 ± 0.56 %ID/g | tissue uptake at 24 h [1, 10]: 1.89 ± 0.29 %ID/g | tissue uptake at 120 h [1, 10]: 0.54 ± 0.1 %ID/g | tissue uptake at 1 h [1, 11]: 12.5 ± 3.49 %ID/g | tissue uptake at 4 h [1, 11]: 9.78 ± 1.28 %ID/g | tissue uptake at 24 h [1, 11]: 9.72 ± 1.38 %ID/g | tissue uptake at 120 h [1, 11]: 4.08 ± 0.78 %ID/g | tissue uptake at 1 h [1, 12]: 7.36 ± 1.58 %ID/g | tissue uptake at 4 h [1, 12]: 7.11 ± 1.5 %ID/g | tissue uptake at 24 h [1, 12]: 8.35 ± 1.86 %ID/g | tissue uptake at 120 h [1, 12]: 4.38 ± 1.08 %ID/g | tissue uptake at 1 h [1, 13]: 17.6 ± 5.68 %ID/g | tissue uptake at 4 h [1, 13]: 11.8 ± 2.51 %ID/g | tissue uptake at 24 h [1, 13]: 9.06 ± 1.04 %ID/g | tissue uptake at 120 h [1, 13]: 2.35 ± 0.54 %ID/g | tissue uptake at 1 h [1, 14]: 2.13 ± 0.4 %ID/g | tissue uptake at 4 h [1, 14]: 1.96 ± 0.3 %ID/g | tissue uptake at 24 h [1, 14]: 1.5 ± 0.19 %ID/g | tissue uptake at 120 h [1, 14]: 0.31 ± 0.07 %ID/g | tissue uptake at 1 h [1, 15]: 3.09 ± 0.53 %ID/g | tissue uptake at 4 h [1, 15]: 2.55 ± 0.15 %ID/g | tissue uptake at 24 h [1, 15]: 2.27 ± 0.34 %ID/g | tissue uptake at 120 h [1, 15]: 0.7 ± 0.13 %ID/g | tissue uptake at 1 h [1, 16]: 5.65 ± 1.09 %ID/g | tissue uptake at 4 h [1, 16]: 4.21 ± 1.31 %ID/g | tissue uptake at 24 h [1, 16]: 6.19 ± 1 %ID/g | tissue uptake at 120 h [1, 16]: 6.86 ± 2.08 %ID/g | tissue uptake at 1 h [1, 17]: 1.03 ± 0.45 %ID/g | tissue uptake at 4 h [1, 17]: 1.02 ± 0.53 %ID/g | tissue uptake at 24 h [1, 17]: 1.44 ± 0.28 %ID/g | tissue uptake at 120 h [1, 17]: 0.47 ± 0.12 %ID/g | tissue uptake at 1 h [1, 18]: 4.23 ± 0.94 %ID/g | tissue uptake at 4 h [1, 18]: 5.09 ± 0.82 %ID/g | tissue uptake at 24 h [1, 18]: 4.89 ± 0.87 %ID/g | tissue uptake at 120 h [1, 18]: 3.03 ± 0.37 %ID/g | tissue uptake at 1 h [1, 19]: 7.45 ± 1.35 %ID/g | tissue uptake at 4 h [1, 19]: 6.83 ± 0.84 %ID/g | tissue uptake at 24 h [1, 19]: 11.6 ± 1.26 %ID/g | tissue uptake at 120 h [1, 19]: 12.4 ± 2.26 %ID/g | tissue to tissue ratio at 1 h [1, 20]: 0.21 ± 0.02 | tissue to tissue ratio at 4 h [1, 20]: 0.42 ± 0.04 | tissue to tissue ratio at 24 h [1, 20]: 2.08 ± 0.26 | tissue to tissue ratio at 1 h [1, 21]: 0.54 ± 0.07 | tissue to tissue ratio at 4 h [1, 21]: 0.96 ± 0.04 | tissue to tissue ratio at 24 h [1, 21]: 3.19 ± 0.46 | tissue to tissue ratio at 120 h [1, 21]: 6.57 ± 0.71 | tissue to tissue ratio at 1 h [1, 22]: 3.11 ± 0.29 | tissue to tissue ratio at 4 h [1, 22]: 4.85 ± 0.53 | tissue to tissue ratio at 24 h [1, 22]: 20.5 ± 2.51 | tissue to tissue ratio at 120 h [1, 22]: 91.3 ± 35.8 | excreta dose per gram or mL at 1 h [1, 23]: 51 ± 21.8 %ID/g | excreta dose per gram or mL at 4 h [1, 23]: 11.2 ± 6.54 %ID/g | excreta dose per gram or mL at 24 h [1, 23]: 20.4 ± 7.69 %ID/g | excreta dose per gram or mL at 120 h [1, 23]: 6.46 ± 1.57 %ID/g
